Settings: Liquid, vibrating wire

CCOCC [diethyl ether]
Settings | mass density [kg/m3] | viscosity [mPa·s]
243.15 K, 100 kPa | 768.339 | 0.412
243.15 K, 4360 kPa | 771.759 | 0.427
243.15 K, 9400 kPa | 775.801 | 0.445
243.15 K, 14450 kPa | 779.603 | 0.463
243.15 K, 19460 kPa | 783.16 | 0.481
253.15 K, 100 kPa | 758.413 | 0.363
253.15 K, 4440 kPa | 762.367 | 0.377
253.15 K, 9400 kPa | 766.683 | 0.392
253.15 K, 14460 kPa | 770.762 | 0.408
253.15 K, 19510 kPa | 774.696 | 0.424
263.15 K, 100 kPa | 747.885 | 0.323
263.15 K, 4390 kPa | 752.036 | 0.335
263.15 K, 9440 kPa | 756.778 | 0.35
263.15 K, 14430 kPa | 761.197 | 0.364
263.15 K, 19430 kPa | 765.357 | 0.378
273.15 K, 100 kPa | 736.593 | 0.288
273.15 K, 4380 kPa | 741.075 | 0.3
273.15 K, 9430 kPa | 746.224 | 0.313
273.15 K, 14470 kPa | 750.968 | 0.326
273.15 K, 19480 kPa | 755.407 | 0.339
283.15 K, 100 kPa | 725.632 | 0.26
283.15 K, 4390 kPa | 730.65 | 0.27
283.15 K, 9420 kPa | 735.997 | 0.283
283.15 K, 14500 kPa | 741.302 | 0.294
283.15 K, 19540 kPa | 746.114 | 0.307
293.15 K, 100 kPa | 714.517 | 0.235
293.15 K, 4380 kPa | 719.86 | 0.245
293.15 K, 9420 kPa | 725.825 | 0.256
293.15 K, 14480 kPa | 731.278 | 0.268
293.15 K, 19490 kPa | 736.437 | 0.28
303.15 K, 220 kPa | 702.89 | 0.214
303.15 K, 4380 kPa | 708.706 | 0.223
303.15 K, 9420 kPa | 715.312 | 0.234
303.15 K, 14500 kPa | 721.122 | 0.245
303.15 K, 19560 kPa | 726.788 | 0.256
313.15 K, 410 kPa | 691.21 | 0.195
313.15 K, 4360 kPa | 697.329 | 0.203
313.15 K, 9430 kPa | 704.446 | 0.214
313.15 K, 14520 kPa | 710.954 | 0.225
313.15 K, 19610 kPa | 717.082 | 0.235
323.15 K, 350 kPa | 678.758 | 0.179
323.15 K, 4380 kPa | 685.74 | 0.187
323.15 K, 9430 kPa | 693.587 | 0.197
323.15 K, 14490 kPa | 700.362 | 0.209
323.15 K, 19510 kPa | 707.014 | 0.217
333.15 K, 410 kPa | 666.408 | 0.163
333.15 K, 4390 kPa | 673.959 | 0.172
333.15 K, 9430 kPa | 682.531 | 0.182
333.15 K, 14470 kPa | 690.138 | 0.192
333.15 K, 19470 kPa | 697.082 | 0.201
343.15 K, 340 kPa | 653.148 | 0.15
343.15 K, 4390 kPa | 661.825 | 0.158
343.15 K, 9420 kPa | 671.37 | 0.167
343.15 K, 14460 kPa | 679.704 | 0.178
343.15 K, 19470 kPa | 687.162 | 0.187
353.15 K, 410 kPa | 639.678 | 0.137
353.15 K, 4380 kPa | 649.165 | 0.146
353.15 K, 9410 kPa | 659.723 | 0.155
353.15 K, 14440 kPa | 668.759 | 0.165
353.15 K, 19400 kPa | 676.864 | 0.174
363.15 K, 510 kPa | 625.615 | 0.126
363.15 K, 4380 kPa | 636.228 | 0.134
363.15 K, 9390 kPa | 647.821 | 0.144
363.15 K, 14400 kPa | 657.773 | 0.153
363.15 K, 19350 kPa | 666.459 | 0.162
373.15 K, 650 kPa | 610.791 | 0.116
373.15 K, 4380 kPa | 622.533 | 0.124
373.15 K, 9380 kPa | 635.564 | 0.134
373.15 K, 14400 kPa | 646.594 | 0.143
373.15 K, 19460 kPa | 656.28 | 0.151

Source: the NIST ThermoML archive (doi:10.1016/j.fluid.2008.06.014)
